Laboratory results: PMC4494771, “Synthesis, structure, and biological activity of novel heterocyclic sulfonyl-carboximidamides” (Monatshefte Fur Chemie, 2013)
≈ marks a conversion by molar mass, not a printed value.

Legend:
U251 = assay: NCI-60 DTP human tumor cell line screening; format: cell-based; conditions: CNS cancer U251
MCF-7 = assay: NCI-60 DTP human tumor cell line screening; format: cell-based
HL-60 (TB) = assay: NCI-60 DTP human tumor cell line screening; format: cell-based
MALME-3M = assay: NCI-60 DTP human tumor cell line screening; format: cell-based; conditions: Melanoma MALME-3M
CCRF-CEM = assay: NCI-60 DTP human tumor cell line screening; format: cell-based; conditions: Leukemia CCRF-CEM
UACC-62 = assay: NCI-60 DTP human tumor cell line screening; format: cell-based; conditions: Melanoma UACC-62
OVCAR-3 = assay: NCI-60 DTP human tumor cell line screening; format: cell-based; conditions: Ovarian cancer OVCAR-3
NCI-H460 = assay: NCI-60 DTP human tumor cell line screening; format: cell-based
IGROV1 = assay: NCI-60 DTP human tumor cell line screening; format: cell-based; conditions: Ovarian cancer IGROV1
[1] = system: panel of 60 human tumor cell lines; assay: NCI-60 DTP human tumor cell line screening, whole panel
SF-295 = assay: NCI-60 DTP human tumor cell line screening; format: cell-based; conditions: CNS cancer SF-295
HS 578T = assay: NCI-60 DTP human tumor cell line screening; format: cell-based; conditions: Breast cancer HS 578T
NCI-H23 = assay: NCI-60 DTP human tumor cell line screening; format: cell-based; conditions: Non-small cell lung cancer NCI-H23
KM12 = assay: NCI-60 DTP human tumor cell line screening; format: cell-based
NCI/ADR-RES = assay: NCI-60 DTP human tumor cell line screening; format: cell-based
OVCAR-4 = assay: NCI-60 DTP human tumor cell line screening; format: cell-based; conditions: Ovarian cancer OVCAR-4
SN 12C = assay: NCI-60 DTP human tumor cell line screening; format: cell-based; conditions: Renal cancer SN 12C
DU-145 = assay: NCI-60 DTP human tumor cell line screening; format: cell-based; conditions: Prostate cancer DU-145
A498 = assay: NCI-60 DTP human tumor cell line screening; format: cell-based; conditions: Renal cancer A498
P. acnes ATCC 11827 = assay: Antibacterial activity, MIC in broth serial dilution
Procedure: Compounds were tested at serial dilutions in bacterial broth starting at 100 μg/cm^3 (final concentration). P. acnes (ATCC 11827, lot 419697) was grown in thioglycollate nutrient broth (Hardy Diagnostics K29) for 72 h at 33 °C, then inoculated at the density equivalent to 0.5 McFarland standard and incubated with the test materials for another 72 h in an anaerobic environment. […] At the end of the incubation the MIC was assessed optically as the lowest concentration of a test material which caused no bacteria growth [34]. This optical assessment was further confirmed by measuring the absorbance at 655 nm with the BioRad 3550-UV microplate reader. The MIC was defined as at least 50 % inhibition of the increase of OD.

SNB-19 = assay: NCI-60 DTP human tumor cell line screening; format: cell-based; conditions: CNS cancer SNB-19
ACHN = assay: NCI-60 DTP human tumor cell line screening; format: cell-based; conditions: Renal cancer ACHN
A549/ATCC = assay: NCI-60 DTP human tumor cell line screening; format: cell-based; conditions: Non-small cell lung cancer A549/ATCC
NCI-H322M = assay: NCI-60 DTP human tumor cell line screening; format: cell-based; conditions: Non-small cell lung cancer NCI-H322M
TK-10 = assay: NCI-60 DTP human tumor cell line screening; format: cell-based
SK-MEL-28 = assay: NCI-60 DTP human tumor cell line screening; format: cell-based; conditions: Melanoma SK-MEL-28
MDA-MB-468 = assay: NCI-60 DTP human tumor cell line screening; format: cell-based
786-0 = assay: NCI-60 DTP human tumor cell line screening; format: cell-based; conditions: Renal cancer 786-0
SK-MEL-5 = assay: NCI-60 DTP human tumor cell line screening
HT29 = assay: NCI-60 DTP human tumor cell line screening; format: cell-based
SK-MEL-2 = assay: NCI-60 DTP human tumor cell line screening; format: cell-based; conditions: Melanoma SK-MEL-2
MDA-MB-231/ATCC = assay: NCI-60 DTP human tumor cell line screening; format: cell-based; conditions: Breast cancer MDA-MB-231/ATCC
BT-549 = assay: NCI-60 DTP human tumor cell line screening; format: cell-based; conditions: Breast cancer BT-549
T-47D = assay: NCI-60 DTP human tumor cell line screening; format: cell-based; conditions: Breast cancer T-47D
[2] = Homo sapiens, SK-MEL-5, read-out: LC 50

## NC(=NS(=O)(=O)c1ccccc1Cl)c1ccc2ccccc2n1 [Compound 15, N′-(2-Chlorophenylsulfonyl)quinoline-2-carboximidamide]
U251
  TGI: ^c (Determined TGI values were >100 μM)
U251; Homo sapiens, U-251
  GI50: 4.48 µM
MCF-7; Breast cancer MCF-7
  TGI: ^c (Determined TGI values were >100 μM)
MCF-7; Homo sapiens, MCF7, read-out: Growth inhibition ΔGI
  inhibition at 10 µM: 15.7%
MCF-7; Homo sapiens, MCF7, Breast cancer MCF-7
  GI50: 3.28 µM
HL-60 (TB); Homo sapiens, HL-60, read-out: Growth inhibition ΔGI
  inhibition at 10 µM: 19.7%
HL-60 (TB); Homo sapiens, Leukemia HL-60 (TB)
  GI50: 2.29 µM
HL-60 (TB); Leukemia HL-60 (TB)
  TGI: 8.41 µM
MALME-3M; Homo sapiens
  GI50: 5.42 µM
MALME-3M
  TGI: ^c (Determined TGI values were >100 μM)
CCRF-CEM; Homo sapiens
  GI50: 3.65 µM
CCRF-CEM
  TGI: ^c (Determined TGI values were >100 μM)
UACC-62; Homo sapiens
  GI50: 6.07 µM
UACC-62
  TGI: ^c (Determined TGI values were >100 μM)
OVCAR-3
  GI50: 9.27 µM
NCI-H460; Homo sapiens, NCI-H460, read-out: Growth inhibition ΔGI
  inhibition at 10 µM: 19.6%
NCI-H460; Homo sapiens, Non-small cell lung cancer NCI-H460
  GI50: 4.02 µM
NCI-H460; Non-small cell lung cancer NCI-H460
  TGI: ^c (Determined TGI values were >100 μM)
IGROV1; Homo sapiens, IGROV-1
  GI50: 9.42 µM
IGROV1
  TGI: ^c (Determined TGI values were >100 μM)
[1]; 10 μM, mean of growth percent for all tested cell lines
  Growth percent mean values (MG_MID): 53.4%
[1]; Homo sapiens
  GI50: 0.92 to 13 µM
[1]; [2]
  CC50: > 100 µM
SF-295
  TGI: 86.30 µM
SF-295; Homo sapiens
  GI50: 3.83 µM
HS 578T
  TGI: ^c (Determined TGI values were >100 μM)
HS 578T; Homo sapiens
  GI50: 8.98 µM
NCI-H23; Homo sapiens
  GI50: 5.44 µM
NCI-H23
  TGI: ^c (Determined TGI values were >100 μM)
KM12; Colon cancer KM12
  TGI: ^c (Determined TGI values were >100 μM)
KM12; Homo sapiens, KM12, read-out: Growth inhibition ΔGI
  inhibition at 10 µM: 23%
KM12; Homo sapiens, Colon cancer KM12
  GI50: 3.29 µM
NCI/ADR-RES; Homo sapiens, NCI/ADR-RES, read-out: Growth inhibition ΔGI
  inhibition at 10 µM: 42.9%
NCI/ADR-RES; Homo sapiens, Ovarian cancer NCI/ADR-RES
  GI50: 2.32 µM
NCI/ADR-RES; Ovarian cancer NCI/ADR-RES
  TGI: 50.50 µM
OVCAR-4; Homo sapiens
  GI50: 9.15 µM
OVCAR-4
  TGI: 9.53 µM
SN 12C; Homo sapiens, SN12C
  GI50: 7.67 µM
SN 12C
  TGI: ^c (Determined TGI values were >100 μM)
DU-145; Homo sapiens
  GI50: 4.96 µM
DU-145
  TGI: ^c (Determined TGI values were >100 μM)
A498; Homo sapiens
  GI50: 8.08 µM
A498
  TGI: ^c (Determined TGI values were >100 μM)
P. acnes ATCC 11827; Cutibacterium acnes, ATCC11827, 72 h, read-out: MIC P. acnes, P. acnes ATCC 11827, 72 h anaerobic
  MIC: 12.5 to 50 µg/mL (≈ 36.1 to 145 µM)
P. acnes ATCC 11827; P. acnes ATCC 11827, 72 h anaerobic
  MIC P. acnes: 12.5 µg/mL (≈ 36.1 µM)
SNB-19
  TGI: ^c (Determined TGI values were >100 μM)
SNB-19; Homo sapiens
  GI50: 5.61 µM
ACHN; Homo sapiens
  GI50: 7.19 µM
ACHN
  TGI: 13.10 µM
A549/ATCC; Homo sapiens
  GI50: 5.37 µM
A549/ATCC
  TGI: ^c (Determined TGI values were >100 μM)
NCI-H322M; Homo sapiens
  GI50: 5.19 µM
NCI-H322M
  TGI: ^c (Determined TGI values were >100 μM)
TK-10; Homo sapiens, TK-10, read-out: Growth inhibition ΔGI
  inhibition at 10 µM: 21.7%
TK-10; Homo sapiens, Renal cancer TK-10
  GI50: 6.02 µM
TK-10; Renal cancer TK-10
  TGI: 7.08 µM
SK-MEL-28; Homo sapiens
  GI50: 5.45 µM
SK-MEL-28
  TGI: 12.00 µM
MDA-MB-468; Breast cancer MDA-MB-468
  TGI: 6.19 µM
MDA-MB-468; Homo sapiens, MDA-MB-468, read-out: Growth inhibition ΔGI
  inhibition at 10 µM: 42.2%
MDA-MB-468; Homo sapiens, Breast cancer MDA-MB-468
  GI50: 2.01 µM
786-0; Homo sapiens
  GI50: 4.94 µM
786-0
  TGI: ^c (Determined TGI values were >100 μM)
SK-MEL-5; Homo sapiens, SK-MEL-5
  GI50: 3.31 µM
SK-MEL-5; [2]
  CC50: 36.2 µM
SK-MEL-5; Melanoma SK-MEL-5
  TGI: 50.50 µM
HT29; Colon cancer HT29
  TGI: 14.90 µM
HT29; Homo sapiens, HT-29, read-out: Growth inhibition ΔGI
  inhibition at 10 µM: 60.4%
HT29; Homo sapiens, HT-29, Colon cancer HT29
  GI50: 3.4 µM
SK-MEL-2; Homo sapiens
  GI50: 3.4 µM
SK-MEL-2
  TGI: ^c (Determined TGI values were >100 μM)
MDA-MB-231/ATCC
  TGI: ^c (Determined TGI values were >100 μM)
MDA-MB-231/ATCC; Homo sapiens
  GI50: 13 µM
BT-549
  TGI: 56.00 µM
BT-549; Homo sapiens
  GI50: 5.08 µM
T-47D
  TGI: ^c (Determined TGI values were >100 μM)
T-47D; Homo sapiens, T47D
  GI50: 7.04 µM
